# Values quoted from earlier work as cited in patent US20110200560A1, “NON-IONIC SELF-ASSEMBLING PEPTIDES AND USES THEREOF” (MASSACHUSETTS INSTITUTE OF TECHNOLOGY, priority 2009, published 2011).
# Like-named read-outs stand apart in the source and are kept apart here.
# Assays:
# [1] = system: human umbilical vein endothelial cells (HIVEC)
# [2] = system: human umbilical vein endothelial cell (HUVEC); conditions: from RADA 16-I scaffold, without additional soluble growth factors
substance,measurement,setting,value
AASIKVAVSADR (Mammalian),activity of neurite extension by PC12 cells,PC12 cells,promoted activity of neurite extension
CSRARKQAASIKVAVSADR (Mammalian) [Laminin-1 peptide],degradation of Matrigel matrix by human umbilical vein endothelial cells,[1],induced degradation of Matrigel matrix
KAFDITYVRLKF (Mammalian),neurite outgrowth,neuronal cell,promoted
same,neuronal cell adhesion,neuronal cell,promoted
same,HUVEC adhesion,HUVEC,promoted
same,HUVEC tube formation,HUVEC,promoted
PDSGR (Mammalian),cell adhesion,cell adhesion,promoted cell adhesion
RAD/KLT: RADA16 peptide scaffold containing motif from vascular endothelial growth factor (KLTWQELYQLKYKGI) (SEQ ID NO: 78) (Mammalian),HUVEC unidirectional migration in response to functional peptide scaffolds,[2],directionally migrated
same,HUVEC unidirectional migration in response to functional peptide scaffolds,[2]; listed as KLT,induced cell migration
RAD/PRG: RADA16 peptide scaffold containing active motif with 2 units RGD motif (PRGDSGYRGDS) (SEQ ID NO: 77) (Mammalian),HUVEC unidirectional migration in response to functional peptide scaffolds,[2],directionally migrated
same,HUVEC unidirectional migration in response to functional peptide scaffolds,[2]; listed as PRG,induced cell migration
RYVVLPR (Mammalian),cell adhesion,cell adhesion,promoted cell adhesion
YIGSR (Mammalian),cell adhesion,cell adhesion,promoted cell adhesion
